Values after ≈ are worked out from the molar mass of the structure shown. Active and inactive are the calls of the source. Unless noted, the rule behind the calls is not given here.
Experiments:
Escherichia coli = experiment: Antibacterial activity against Escherichia coli SG 458; format: functional, organism-based
Proteus vulgaris = experiment: Antibacterial activity against Proteus vulgaris OX 19; format: functional, organism-based
[1] = system: Mycolicibacterium smegmatis; experiment: Antimycobacterial activity against Mycobacterium smegmatis SG 987; format: functional, organism-based
Mycolicibacterium aurum [2] = experiment: Antimycobacterial activity against Mycobacterium aurum SB 66; format: functional, organism-based
Mycolicibacterium aurum [3] = experiment: Antimycobacterial activity against Mycobacterium aurum DSM 43536; format: functional, organism-based
Mycolicibacterium vaccae [4] = experiment: Antimycobacterial activity against Mycobacterium vaccae 10670; format: functional, organism-based
[5] = system: Mycolicibacterium fortuitum; experiment: Antimycobacterial activity against Mycobacterium fortuitum B; format: functional, organism-based
[6] = system: Sporobolomyces salmonicolor; experiment: Antimicrobial activity against Sporobolomyces salmonicolor SBUG 549; format: functional, organism-based
Candida albicans = experiment: Antifungal activity against Candida albicans; format: functional, organism-based
Colletotrichum = experiment: Antifungal activity against Glomerella; format: functional, organism-based
Mycobacterium avium [7] = experiment: Antimycobacterial activity against Mycobacterium avium MAC 100; format: functional, organism-based
Mycobacterium avium [8] = experiment: Antimycobacterial activity against Mycobacterium avium MAC 101; format: functional, organism-based
Mycobacterium avium [9] = experiment: Antimycobacterial activity against Mycobacterium avium MAC 108; format: functional, organism-based
Mycobacterium avium [10] = experiment: Antimycobacterial activity against Mycobacterium avium MAC 109; format: functional, organism-based
Mycobacterium avium [11] = experiment: Antimycobacterial activity against Mycobacterium avium MAC 116; format: functional, organism-based
Mycolicibacterium vaccae [12] = experiment: Antimycobacterial activity against Mycobacterium vaccae 10670 by agar diffusion assay; format: functional, organism-based
[13] = system: Mycolicibacterium fortuitum; experiment: Antimycobacterial activity against Mycobacterium fortuitum B by agar diffusion assay; format: functional, organism-based
Mus musculus [14] = experiment: Toxicity in mouse assessed as change in body weight at 100 mg/kg, po qd for 5 days followed by 2 days rest and 200 mg/kg, po qd for 5 days; format: organism-based; conditions: in vivo
Mus musculus [15] = experiment: Toxicity in mouse assessed as change in gross appearance at 100 mg/kg, po qd for 5 days followed by 2 days rest and 200 mg/kg, po qd for 5 days; format: organism-based; conditions: in vivo
Mus musculus [16] = experiment: Toxicity in mouse assessed as behavioral change at 100 mg/kg, po qd for 5 days followed by 2 days rest and 200 mg/kg, po qd for 5 days; format: organism-based; conditions: in vivo
[17] = system: Mycobacterium tuberculosis; experiment: Antimycobacterial activity against Mycobacterium tuberculosis Erdman infected in BALB/c mouse assessed as reduction of bacterial load at 200 mg/kg, po qd for 5 days per week administered 60 days after infection measured after 85 days post infection; format: functional, organism-based; parameters: dose 200 mg/kg
[18] = Chemical stability in simulated gastric fluid assessed as compound remaining after 2 hrs by HPLC analysis; format: physicochemical; conditions: simulated gi fluid
Liver microsomes = experiment: Metabolic stability in Sprague-Dawley rat microsomes assessed as compound remaining after 15 mins by HPLC analysis; format: ADME, Microsome; conditions: 0.25 h
[19] = system: Mycobacterium tuberculosis; experiment: Antimycobacterial activity against Mycobacterium tuberculosis H37Rv ATCC 27294 in GAS medium after 1 week by microplate alamar blue assay; format: functional; conditions: H37Rv ATCC 27294, 168 h
[20] = system: Mycobacterium tuberculosis; experiment: Antimycobacterial activity against Mycobacterium tuberculosis H37Rv ATCC 27294 in GAST medium after 1 week by microplate alamar blue assay; format: functional; conditions: H37Rv ATCC 27294, 168 h
Vero = experiment: Cytotoxicity against african green monkey Vero cells by colorimetric assay; format: cell-based; conditions: Chlorocebus sabaeus
[21] = system: Mycobacterium tuberculosis; experiment: Antimycobacterial activity against Mycobacterium tuberculosis H37Rv ATCC 27294 incubated 10 days under anaerobic condition measured after 24 hrs recovery in air by luciferase based low oxygen recovery assay; format: functional
Bacillus subtilis = experiment: Antibacterial activity against Bacillus subtilis ATCC 6633; format: functional, organism-based
Staphylococcus aureus = experiment: Antibacterial activity against Staphylococcus aureus SG 511; format: functional, organism-based
Micrococcus luteus = experiment: Antibacterial activity against Micrococcus luteus ATCC 10240; format: functional, organism-based

O=C(OCc1ccccc1)[C@@H]1COC(c2ccccc2)=N1
Activity (Escherichia coli): inactive | Activity (Proteus vulgaris): inactive | Activity [1]: inactive | Activity (Mycolicibacterium aurum [2]): inactive | Activity (Mycolicibacterium aurum [3]): inactive | Activity (Mycolicibacterium vaccae [4]): inactive | Activity [5]: inactive | Activity [6]: inactive | Activity (Candida albicans): inactive | Activity (Colletotrichum): inactive | Activity (Mycobacterium avium [7]): inactive | Activity (Mycobacterium avium [8]): inactive | Activity (Mycobacterium avium [9]): inactive | Activity (Mycobacterium avium [10]): inactive | Activity (Mycobacterium avium [11]): inactive | Activity (Mycolicibacterium vaccae [12]): inactive | Activity [13]: Active | Activity (Mus musculus [14]): Non-toxic | Activity (Mus musculus [15]): Non-toxic | Activity (Mus musculus [16]): Non-toxic | Activity [17]: inactive | Stability [18]: 0.4% | Stability (Liver microsomes): 5.7% | MIC [19]: 7.2 µM (≈ 2.03 µg/mL) | MIC [20]: 4.42 µM (≈ 1.24 µg/mL) | IC50 (Vero): > 128 µM | MIC [21]: 63 µM (≈ 17.7 µg/mL) | Activity (Bacillus subtilis): inactive | Activity (Staphylococcus aureus): inactive | Activity (Micrococcus luteus): inactive

O=C(OCc1ccccc1)[C@@H]1COC(c2cccc(Cl)c2)=N1
Activity [17]: inactive | MIC [19]: 11.6 µM (≈ 3.66 µg/mL) | MIC [20]: 1.8 µM (≈ 0.568 µg/mL) | IC50 (Vero): > 128 µM

O=C(OCc1ccccc1)c1coc(-c2ccc(Cl)cc2)n1
Activity [17]: inactive | MIC [19]: 18.9 µM (≈ 5.93 µg/mL) | MIC [20]: 7.77 µM (≈ 2.44 µg/mL) | IC50 (Vero): > 128 µM | MIC [21]: 56.2 µM (≈ 17.6 µg/mL)

O=C(OCc1ccccc1)c1coc(-c2cccc(Cl)c2)n1
Activity [17]: inactive | MIC [19]: 1.25 µM (≈ 0.392 µg/mL) | MIC [20]: 0.99 µM (≈ 0.311 µg/mL) | IC50 (Vero): > 128 µM

O=C(OCc1ccccc1)c1coc(-c2ccccc2Cl)n1
Activity (Escherichia coli): inactive | Activity (Proteus vulgaris): inactive | Activity [1]: inactive | Activity (Mycolicibacterium aurum [2]): inactive | Activity (Mycolicibacterium aurum [3]): inactive | Activity (Mycolicibacterium vaccae [4]): inactive | Activity [5]: inactive | Activity [6]: inactive | Activity (Candida albicans): inactive | Activity (Colletotrichum): inactive | Activity (Mycobacterium avium [7]): inactive | Activity (Mycobacterium avium [8]): inactive | Activity (Mycobacterium avium [9]): inactive | Activity (Mycobacterium avium [10]): inactive | Activity (Mycobacterium avium [11]): inactive | Activity (Mycolicibacterium vaccae [12]): Active | Activity [13]: Active | Activity (Mus musculus [14]): Non-toxic | Activity (Mus musculus [15]): Non-toxic | Activity (Mus musculus [16]): Non-toxic | Activity [17]: inactive | Stability [18]: 4.2% | Stability (Liver microsomes): 8.8% | MIC [19]: 0.73 µM (≈ 0.229 µg/mL) | MIC [20]: 1.69 µM (≈ 0.53 µg/mL) | IC50 (Vero): > 128 µM | MIC [21]: 11.4 µM (≈ 3.58 µg/mL) | Activity (Bacillus subtilis): inactive | Activity (Staphylococcus aureus): inactive | Activity (Micrococcus luteus): inactive

O=C(OCc1ccccc1)c1coc(-c2ccccc2OCc2ccccc2)n1
Activity (Escherichia coli): inactive | Activity (Proteus vulgaris): inactive | Activity [1]: inactive | Activity (Mycolicibacterium aurum [2]): inactive | Activity (Mycolicibacterium aurum [3]): inactive | Activity (Mycolicibacterium vaccae [4]): inactive | Activity [5]: inactive | Activity [6]: inactive | Activity (Candida albicans): inactive | Activity (Colletotrichum): inactive | Activity (Mycobacterium avium [7]): inactive | Activity (Mycobacterium avium [8]): inactive | Activity (Mycobacterium avium [9]): inactive | Activity (Mycobacterium avium [10]): inactive | Activity (Mycobacterium avium [11]): inactive | Activity (Mycolicibacterium vaccae [12]): Active | Activity [13]: Active | Activity (Mus musculus [14]): Non-toxic | Activity (Mus musculus [15]): Non-toxic | Activity (Mus musculus [16]): Non-toxic | Activity [17]: inactive | Stability [18]: 4.2% | Stability (Liver microsomes): 13% | MIC [19]: 62.6 µM (≈ 24.1 µg/mL) | MIC [20]: 10.3 µM (≈ 3.97 µg/mL) | IC50 (Vero): > 128 µM | Activity (Bacillus subtilis): inactive | Activity (Staphylococcus aureus): inactive | Activity (Micrococcus luteus): inactive

CCOc1ccc(-c2nc(C(=O)OCc3ccccc3)co2)cc1
Activity [17]: inactive | MIC [19]: 15.5 µM (≈ 5.01 µg/mL) | MIC [20]: 1.97 µM (≈ 0.637 µg/mL) | IC50 (Vero): > 128 µM | MIC [21]: 29.7 µM (≈ 9.6 µg/mL)

COc1ccc(-c2nc(C(=O)OCc3ccccc3)co2)cc1
Activity (Escherichia coli): inactive | Activity (Proteus vulgaris): inactive | Activity [1]: inactive | Activity (Mycolicibacterium aurum [2]): inactive | Activity (Mycolicibacterium aurum [3]): inactive | Activity (Mycolicibacterium vaccae [4]): inactive | Activity [5]: inactive | Activity [6]: inactive | Activity (Candida albicans): inactive | Activity (Colletotrichum): inactive | Activity (Mycobacterium avium [7]): inactive | Activity (Mycobacterium avium [8]): inactive | Activity (Mycobacterium avium [9]): inactive | Activity (Mycobacterium avium [10]): inactive | Activity (Mycobacterium avium [11]): inactive | Activity (Mycolicibacterium vaccae [12]): Active | Activity [13]: Active | Activity (Mus musculus [14]): Non-toxic | Activity (Mus musculus [15]): Non-toxic | Activity (Mus musculus [16]): Non-toxic | Activity [17]: inactive | Stability [18]: 0.4% | Stability (Liver microsomes): 14% | MIC [19]: 1.72 µM (≈ 0.532 µg/mL) | MIC [20]: 1.8 µM (≈ 0.557 µg/mL) | IC50 (Vero): > 128 µM | Activity (Bacillus subtilis): inactive | Activity (Staphylococcus aureus): inactive | Activity (Micrococcus luteus): inactive

COc1ccc(CNC(=O)c2coc(-c3ccc([N+](=O)[O-])cc3)n2)cc1OC
Activity [17]: inactive | MIC [19]: 35.8 µM (≈ 13.7 µg/mL) | MIC [20]: 49.5 µM (≈ 19 µg/mL) | IC50 (Vero): > 128 µM

O=C(OCc1ccccc1)c1coc(-c2ccc([N+](=O)[O-])c(F)c2)n1
Activity [17]: inactive | MIC [19]: 35.4 µM (≈ 12.1 µg/mL) | MIC [20]: 2.66 µM (≈ 0.91 µg/mL) | IC50 (Vero): > 128 µM

O=C(OCc1ccccc1)c1coc(-c2cncc(Br)c2)n1
Activity [17]: inactive | MIC [19]: 2.37 µM (≈ 0.851 µg/mL) | MIC [20]: 2.24 µM (≈ 0.805 µg/mL) | IC50 (Vero): > 128 µM | MIC [21]: > 128 µM

C[C@@H]1OC(c2ccc(F)cc2[N+](=O)[O-])=N[C@@H]1C(=O)OCc1ccccc1
Activity [17]: inactive | MIC [19]: 12.5 µM (≈ 4.48 µg/mL) | MIC [20]: 4.11 µM (≈ 1.47 µg/mL) | IC50 (Vero): 38.1 µM

O=C(OCc1ccccc1)c1coc(-c2cccc(F)c2)n1
Activity [17]: inactive | MIC [19]: 0.91 µM (≈ 0.271 µg/mL) | MIC [20]: 1.42 µM (≈ 0.422 µg/mL) | IC50 (Vero): > 128 µM

Cc1oc(-c2ccccc2OCc2ccccc2)nc1C(=O)OCc1ccccc1
Activity [17]: inactive | MIC [19]: 28.3 µM (≈ 11.3 µg/mL) | MIC [20]: > 128 µM | IC50 (Vero): 110 µM

Reference: ChEMBL document CHEMBL1157845, “Structure-activity relationship of new anti-tuberculosis agents derived from oxazoline and oxazole benzyl esters” (Eur J Med Chem, 2010)
